Source: patent US20160045513A1, “ISOXAZOLE COMPOUND FOR THE TREATMENT OF CANCER” (Novartis AG, priority 2007, published 2016)

Assays:
Assay in all cases: cell proliferation, tumor derived cell lines
Format in all cases: cell-based
BE = conditions: Colon, 72 or 96 hours exposure
Protocol: (§1) Thirty-seven cancer derived cell lines are used (BT474, MDA-MB-361, MDA-MB-453, SKBr3, T47D, MCF7, MDA-MB-231, MDA-MB-468, SK-MEL-5, A375, MALME-3M, SK-MEL-28, WM266.4, RPMI8226, U266, BE, Colo205, HCT116, HT29, MAWI, RKO, U87MG, HN5, RPMI-8226, A549, MV522, NCI-H1299, NCI-H460, 41M, A2780, CHI, NCI-N87, SKOV3, PC3, MO7e, GIST882 and Baf3) to test the effect of 5-(2,4-Dihydroxy-5-isopropyl-phenyl)-4-(4-morpholin-4-ylmethyl-phenyl)-isoxazole-3-carboxylic acid ethylamide. Cell lines are commercially available from American Type Culture Collection (ATCC). These cell lines cover the following 12 cancer or tumor types: breast, melanoma, multiple myeloma (MM), colon, glioblastoma, head & neck, leukemia, lung, ovarian, prostate, stomach and gastrointestinal stromal tumour (GIST). After division and medium change, cells from stock culture are seeded on cell plates and cultured for about 18 hours to allow cell growth and attachment before starting the assay. On the first day of the assay, 5-(2,4-Dihydroxy-5-isopropyl-phenyl)-4-(4-morpholin-4-ylmethyl-phenyl)-isoxazole-3-carboxylic acid ethylamide is added to the medium at various concentrations up to […]. Cells are cultured up to 72 or 96 hours and cell proliferation is determined using commercially available cell proliferation kits.
(§2) The cells were continually exposed to 5-(2,4-Dihydroxy-5-isopropyl-phenyl)-4-(4-morpholin-4-ylmethyl-phenyl)-isoxazole-3-carboxylic acid ethylamide for either 72 or 96 hours and cell growth was determined by commercially available kits based on either SRB, Alamar blue, methylene blue or WST-1 methods.

HT29 = conditions: Homo sapiens, HT-29, Colon, 72 or 96 hours exposure
Protocol: as §1, §2

NCI-H460 = conditions: Homo sapiens, Lung, 72 or 96 hours exposure
Protocol: as §1, §2

RPMI8226 = conditions: Homo sapiens, RPMI-8226, Multiple myeloma (MM), 72 or 96 hours exposure
Protocol: as §1, §2

SK-MEL-5 = conditions: Homo sapiens, Melanoma, 72 or 96 hours exposure
Protocol: as §1, §2

IC50 (BE): 2.8 nM
IC50 (HT29): 30 nM
IC50 (NCI-H460): 14 nM
IC50 (RPMI8226): 36.7 nM
IC50 (SK-MEL-5): 3 nM
Structure (SMILES): CCNC(=O)c1noc(-c2cc(C(C)C)c(O)cc2O)c1-c1ccc(CN2CCOCC2)cc1 [AUY922, 5-(2,4-Dihydroxy-5-isopropyl-phenyl)-4-(4-morpholin-4-ylmethyl-phenyl)-isoxazole-3-carboxylic acid ethylamide]
